According to patent US20230287316A1, “INTER-ORGAN PLATFORM WITH TISSUE-SPECIFIC NICHES FOR A MICROPHYSIOLOGICAL SYSTEM ON A CHIP” (THE TRUSTEES OF COLUMBIA UNIVERSITY IN THE CITY OF NEW YORK, priority 2020, published 2023):

Experiments:
[1] = tested on: non-metastatic ES bone tumor tissues; assay: Linsitinib on non-metastatic ES bone tumor in the integrated platform with microfluidic perfusion; format: cell-based, human; settings: 12 µM
Description: (§1) Cell viability was analyzed using a previously established protocol.^59 Cancer cell viability was measured for GFP-Luciferase labelled cancer cells using ONE-Glo luciferase substrate that was prepared according to manufacturer’s protocol (Promega). Samples were collected following 3, 7, and 21 days cycles of linsitinib treatment. Where noted, longitudinal cell viability was also assessed using luminescence, though at the cost of signal strength. Briefly, in vivo grade VivoGlo™ Luciferin (Promega) was made at a 200x stock concentration (30 mg/ml) in water, added to sample culture media at a 1:200 dilution, and scanned using a spectrophotometer (Biotek). Some of the IC50 values were determined using cell viability data generated using an MTT assay (RealTime-Glo™ MT Cell Viability Assay, Promega) that were analyzed according to manufacturer’s protocol.
(§2) Osteocalcin (OCN), osteopontin (OPN), and lactic acid dehydrogenase (LDH) secreted levels were all measured using a similar approach. Supernatants were isolated from controls and drug treated TE-ES and equal amounts were used in each assay according to the manufacturer’s instructions. For OCN a Human Osteocalcin Quantikine^R ELISA (R&D Systems) was used, while for OPN it was a Human Osteopontin Quantikine^R ELISA (R&D Systems). LDH secretion was determined using a Lactate Dehydrogenase Assay Kit (Colorimetric; Abcam).

[2] = tested on: tumors engineered from non-metastatic OS cells; assay: Linsitinib in bioengineered tumors from non-metastatic OS cells; format: cell-based, human; settings: 12 µM, for 3 weeks
Description: (§3) We tested the drug Linsitinib—a potent tyrosine kinase inhibitor targeting the IGF-1 receptor (IGF-1R) —in metastatic and non-metastatic OS models (FIG. 17C). The drug was administered (12 µM, for 3 weeks), as per an ongoing Phase II Eurosarc trial in patients with advanced Ewing sarcoma.

[3] = tested on: metastatic SK-N-MC cell line; assay: Linsitinib 12 µM on metastatic ES cell monolayers, luminescence viability; format: cell-based, human; settings: 12 µM over 72 hours
Description: MTT viability assay was used to determine drug toxicity, with luminescence generated by viable cells measured at the endpoint (10^4 cells per well, mean± s.e.m., n = 3). […] In order to determine cancer cell viability, cells were lysed and treated with luciferin using a Bright-Glo™ assay, with subsequent luminescence measured (10^4 cells per well, mean± s.e.m., n = 3).
Both culture media were supplemented with 10% FBS and 1 % penicillin/streptomycin.
as §1

[4] = cited from earlier work
[5] = tested on: engineered cardiac tissues; assay: Linsitinib on engineered cardiac tissues cultured in isolation; format: cell-based, human; settings: isolated
Description: (§4) FIGS. 32A-D show aspects of responses of human engineered bone ES tumors and cardiac tissues to linsitinib in isolated platform chambers. […] Luminescence as a function of cancer cell number and viability was measured (mean± s.e.m., n = 6 for day 3, and n = 3 for day 7 and 21).
Specifically, linsitinib was dissolved at a 10 mM concentration in DMSO (Corning) and mixed in with the respective cell medium at a […] concentration unless otherwise noted. Vehicle treatments involved just the addition of DMSO at identical volumes as a control. Tissues were randomly assigned to experimental groups. Medium was changed every day.
(§5) To measure the cardiac contractility online, we took contractility videos of the tissues that were analyzed using the native MATLAB code we previously developed. Tissue contractility was measured by tracking the change in tissue area as a function of time. Acquired video frames were inverted and an automated intensity threshold was used to identify cell location in the video frame. First, a baseline time point in the video corresponding to a relaxed tissue state was selected. Absolute differences in cell area from the baseline frame were then calculated to create a time course of cell area changes over time. The resulting time courses were analyzed using a native MATLAB (MATHWorks) automated peak finding algorithm to determine locations of maximum cell contractions in the time profiles. Beat period lengths were determined from the length of time between the pairs of local maxima, and the beat frequencies were determined by inverting beat periods. The rate of proarrhythmic events was calculated by the ratio of the number of proarrhythmic events over the total number of beats.

[6] = tested on: non-metastatic TE-ES bone tumor; assay: Linsitinib on non-metastatic TE-ES in 1:1 mixed media; format: cell-based, human; settings: 12 µM regimen
Description: as §1, §2

[7] = tested on: metastatic TE-ES (SK-N-MC) bone tumor; assay: Linsitinib on metastatic engineered ES bone tumors (TE-ES) cultured in isolation; format: cell-based, human; settings: 12 µM
Description: as §4
Supernatants were collected from each individual sample across the duration of the drug treatments and were analyzed for osteoblast function (OCN, OPN) and for cytotoxicity (LDH) (mean± s.e.m., n = 3).
Two weeks following the initiation of osteogenic differentiation, aggregates of ES tumor cells were prepared as described previously, using 0.3 × 10^6 cells per aggregate. After 1 week of culture, corresponding to the end of bone tissue culture (3 weeks), the primary ES cell aggregates were placed into the engineered bone constructs (3 aggregates per construct, placed apart of each other). Tumor models were established for two different types of primary ES cells: non-metastatic (RD-ES) and metastatic (SK-N-MC). Tissue engineered RD-ES and SK-N-MC tumors were cultured in the RPMI and EMEM media, respectively, supplemented with 10% FBS and 1% penicillin/streptomycin. Bone constructs cultured without tumor cell aggregates (TE-bone) in RPMI and EMEM media were used as controls.
as §1, §2

[8] = tested on: cardiac tissues; assay: Linsitinib on cardiac tissue in the integrated platform with microfluidic perfusion; format: cell-based, human
Description: The TE-ES and cardiac tissues were then cultured in the integrated platform with perfusion of mixed media. Linsitinib was introduced into the reservoir and delivered to tissues via circulation of perfusate and diffusion into the tissues.
FIGS. 35A-E show aspects of responses of human engineered bone ES tumors and cardiac tissues to linsitinib in the integrated platform with microfluidic perfusion. FIGS. 35A and 35B show the responses when non-metastatic ES bone tumors and cardiac tissues were exposed to linsitinib (12 µM) over a period of 72 hours in either isolated culture or within the perfused integrated platform. Luminescence (FIG. 35A) and LDH secretion (FIG. 35B) as functions of cancer cell number and viability as well as cytotoxicity, respectively, were measured (mean± s.e.m., n = 3).
as §5

[9] = tested on: tumors from metastatic cells; assay: Linsitinib in bioengineered tumors from metastatic OS cells; format: cell-based, human; settings: 12 µM, for 3 weeks
Description: as §3

[10] = clinical trials of other types of cancer

C[C@]1(O)C[C@@H](c2nc(-c3ccc4ccc(-c5ccccc5)nc4c3)c3c(N)nccn32)C1 [linsitinib]
drug response (luminescence), immediate exposure ([1]; 3 days, directly into the TE-ES tissue chamber): fast response to the drug
drug response (luminescence), diffused exposure ([1]; 3 days, introduced into the circulation): no response
drug response (luminescence) ([1]; 3 days, linsitinib into the reservoir): insignificant drug response
Secretion of LDH, vehicle vs linsitinib treated ([1]; 72 hours): no significant difference
tumor viability [2]: significant viability reduction
drug efficacy (luminescence viability) [3]: significant drug efficacy
progression of ES in the clinical trial ([4]; Phase II trial, patients with refractory or relapsed ES): unable to stop progression of ES
Cmax ([4]; blood plasma, patients, read-out: Cmax clinical concentration): 12 µM
atrial fibrillation [4, 10]: 3.75 - 5%
tachycardia [4, 10]: 3.75-5 % of patients
half-life ([4]; known value): approximately 5 hours
beating frequency ([5]; 12 µM, after 3 days of exposure): increased beating frequency
rate of proarrhythmic events per beat ([5]; 12 µM): around 36%
response to subsequent isoproterenol exposure ([5]; after 12 µM linsitinib): the inotropic response was not observed
OCN secretion [6]: increased only slightly
cancer cell population level (luminescence) [6]: ~ 30 % of their starting population
LDH secretion (cytotoxicity) ([7]; 3-week regimen, supernatants): spiked
Osteocalcin secretion ([7]; 3-week regimen, supernatants): decreased
cancer cell population (luminescence) ([7]; 21-day clinical treatment regimen): decrease in drug efficacy, as the cancer cell population continued to expand over the 21-day treatment cycle
drug response (luminescence) ([7]; after 3 days): significant drug response
osteopontin secretion ([7]; throughout the 21 days): decreased similar to osteocalcin
rate of proarrhythmic events ([8]; 12 µM, integrated model): approximately 11%
beat frequency ([8]; 12 µM, integrated platform): did not observe linsitinib-mediated changes in beat frequency
response to subsequent isoproterenol exposure ([8]; after 12 µM linsitinib, integrated platform): expected inotropic response
overall cardiotoxicity ([8]; integrated platform): mild cardiotoxicity
tumor viability [9]: no effect
